This passage reports remaining activity results from publication PMC8286840, “Identifying SARS-CoV-2 antiviral compounds by screening for small molecule inhibitors of Nsp3 papain-like protease” (Biochemical Journal, 2021).

The structures appear in SMILES notation. Structures can show the parent of a compound that is named as a salt. Where two headings read alike, the source gives them in different places. Where a SMILES comes first, the peptide text is derived from it. Bridges are numbered along the chain shown (N, C = ends).

Experiment [1] concerns the target T1, SARS-CoV-2 PLpro (nsp3 1564–1878) (Severe acute respiratory syndrome coronavirus 2, UniProt P0DTD1). The experiment is described as follows: biochemical. More on the design: FRET-quenched peptide (Pro3) cleavage by PLpro, 10 min pre-incubation, slope over 20 min, normalised to no-compound control. Particulars: low concentration screen, read-out: % of control remaining.

Experiment [2] concerns the target T1, SARS-CoV-2 PLpro (nsp3 1564–1878). The experiment in a line: biochemical. Also noted: FRET-quenched peptide (Pro3) cleavage by PLpro, 10 min pre-incubation, slope over 20 min, normalised to no-compound control. Particulars: high concentration screen, read-out: % of control remaining.
Experimental: The plates were organized with columns 3–22 containing the compounds; the remaining columns were used for reaction controls including substrate only and substrate with enzyme but no compound (Figure 3Aii). The PLpro enzyme was pre-incubated with the compounds for 10 min, and then the reaction was initiated by the addition of substrate. […] We incubated the inhibitors with PLpro before the enzymatic reaction so that the slow-binding inhibitors will not be missed out [21]. […] Fluorescence was read on a Spark multimode microplate reader (Tecan) with an excitation wavelength at 330 nm and emission wavelength at 420 nm. […] An amount of 5 µl of the enzyme was pre-incubated with compounds for 10 min before the addition of 15 µl substrate. Fluorescence was monitored at 2 min for 20 min with 3 min intervals giving a total of seven readings.

With `CC(C)OC(=O)OCOP(=O)(CO[C@H](C)Cn1cnc2c(N)ncnc21)OCOC(=O)OC(C)C` [Tenofovir Disoproxil Fumarate], in experiment [1] (Well no.=4811), the remaining activity at 1.25 µM is 97.8%. The remaining activity at 3.75 µM in experiment [2] (Well no.=4811) was determined as 99.5%.
On to `CC(=O)Nc1ccc(NC(=S)NC(=O)c2ccc(C(C)(C)C)cc2)cc1` [Tenovin-1], for which the figures for the remaining activity at 1.25 µM in experiment [1] (Well no.=4784) and in experiment [1] (Well no.=7160) were 95.1% and 98.9%, respectively. Further, in experiment [2] (Well no.=4784), the remaining activity at 3.75 µM worked out at 96.5%.
With `CC(C)(C)c1ccc(C(=O)NC(=S)Nc2ccc(N)cc2)cc1` [Tenovin-3], the remaining activity at 1.25 µM in experiment [1] (Well no.=7072) was 102%. Besides, in experiment [2] (Well no.=7072), the remaining activity at 3.75 µM came out at 97.4%.
Consider `CN(C)CCCCC(=O)Nc1ccc(NC(=S)NC(=O)c2ccc(C(C)(C)C)cc2)cc1` [Tenovin-6], for which the remaining activity at 1.25 µM in experiment [1] (Well no.=6724) amounted to 93.8%. In addition, in experiment [2] (Well no.=6724), the remaining activity at 3.75 µM came to 92%.
In the case of `CN1C(C(=O)Nc2ccccn2)=C(O)c2sccc2S1(=O)=O` [Tenoxicam], in experiment [1] (Well no.=2299), the remaining activity at 1.25 µM was 98.3%. Besides, in experiment [2] (Well no.=2299), the remaining activity at 3.75 µM came to 101%.
For the molecule `COc1cc2nc(N3CCN(C(=O)C4CCCO4)CC3)nc(N)c2cc1OC` (stereo not shown) [Terazosin (hydrochloride dihydrate)], the remaining activity at 1.25 µM in experiment [1] (Well no.=7519) was determined as 98.6%. Further, the remaining activity at 3.75 µM in experiment [2] (Well no.=7519) came out at 84.5%.
Turning to `COc1cc2nc(N3CCN(C(=O)C4CCCO4)CC3)nc(N)c2cc1OC` (stereo not shown) [Terazosin hydrochloride], in experiment [1] (Well no.=1241), the remaining activity at 1.25 µM stood at 98.7%. In addition, in experiment [2] (Well no.=1241), the remaining activity at 3.75 µM amounted to 92.5%.
With `COc1cc2nc(N3CCN(C(=O)C4CCCO4)CC3)nc(N)c2cc1OC` (stereo not shown) [Terazosin], the remaining activity at 1.25 µM in experiment [1] (Well no.=2301) worked out at 90.8%. The remaining activity at 3.75 µM in experiment [2] (Well no.=2301) was found to be 89.8%.
In the case of `CN(C/C=C/C#CC(C)(C)C)Cc1cccc2ccccc12` [Terbinafine], the remaining activity at 1.25 µM in experiment [1] (Well no.=1580) came to 95%. Further, the remaining activity at 3.75 µM in experiment [2] (Well no.=1580) turned out to be 97.8%.
For `CC(C)(C)NCC(O)c1cc(O)cc(O)c1` (stereo not shown) [Terbutaline (sulfate)], in experiment [1] (Well no.=6709), the remaining activity at 1.25 µM stood at 106%. Further, the remaining activity at 3.75 µM in experiment [2] (Well no.=6709) amounted to 106%.
Turning to `CC(C)(C)NCC(O)c1cc(O)cc(O)c1` (stereo not shown) [Terbutaline hemisulfate], the remaining activity at 1.25 µM in experiment [1] (Well no.=1189) was determined as 98.5%. Moreover, the remaining activity at 3.75 µM in experiment [2] (Well no.=1189) turned out to be 100%.
In the case of `O=C(O)c1ccc(C(=O)O)cc1` [Terephthalic acid], the remaining activity at 1.25 µM in experiment [1] (Well no.=7501) came to 106%. Also, the remaining activity at 3.75 µM in experiment [2] (Well no.=7501) turned out to be 103%.
Turning to `CC(C)(C)c1ccc(C(O)CCCN2CCC(C(O)(c3ccccc3)c3ccccc3)CC2)cc1` (stereo not shown) [Terfenadine], the values for the remaining activity at 1.25 µM in experiment [1] (Well no.=1232), in experiment [1] (Well no.=1742) and in experiment [1] (Well no.=6598) were 100%, 97.7% and 103%, respectively. Moreover, the remaining activity at 3.75 µM in experiment [2] (Well no.=1232) is 102%; in experiment [2] (Well no.=1742) it was 98.6%; in experiment [2] (Well no.=6598), 104%.
For `NCCCC[C@H](NC(=O)[C@@H]1CCCN1C(=O)[C@@H]1CSSC[C@H](NC(=O)CNC(=O)CNC(=O)CN)C(=O)N[C@@H](Cc2ccc(O)cc2)C(=O)N[C@@H](Cc2ccccc2)C(=O)N[C@@H](CCC(N)=O)C(=O)N[C@@H](CC(N)=O)C(=O)N1)C(=O)NCC(N)=O` [Terlipressin] (H-GGGCYFQNCPKG-NH2; disulfide 4-9), the remaining activity at 1.25 µM in experiment [1] (Well no.=8103) stood at 106%. In experiment [2] (Well no.=8103), the remaining activity at 3.75 µM amounted to 104%.
Take `CC(CC(c1ccccc1)c1ccccc1)NC(C)(C)C` (stereo not shown) [Terodiline hydrochloride]: the remaining activity at 1.25 µM in experiment [1] (Well no.=5438) was 94.4%. Besides, in experiment [2] (Well no.=5438), the remaining activity at 3.75 µM was found to be 99.3%.
As for `Cc1ccc2c(c1CCC(=O)O)CC[C@@H](NS(=O)(=O)c1ccc(Cl)cc1)C2` [Terutroban], the remaining activity at 1.25 µM in experiment [1] (Well no.=7149) was determined as 93.3%. Moreover, in experiment [2] (Well no.=7149), the remaining activity at 3.75 µM is 94.2%.
`COc1cc2c(cc1OC)[C@H]1CC(=O)[C@H](CC(C)C)CN1CC2` [Tetrabenazine]: the remaining activity at 1.25 µM in experiment [1] (Well no.=7492) stood at 94.6%. In addition, in experiment [2] (Well no.=7492), the remaining activity at 3.75 µM turned out to be 94.7%.
For the molecule `CCCCNc1ccc(C(=O)OCCN(C)C)cc1` [Tetracaine hydrochloride], in experiment [1] (Well no.=1228), the remaining activity at 1.25 µM was found to be 97.1%. The remaining activity at 3.75 µM in experiment [2] (Well no.=1228) is 97.5%.
Regarding `CCCCCCCCCCCCCCCCCCCCCCCC(=O)O` [Tetracosanoic acid], in experiment [1] (Well no.=4502), the remaining activity at 1.25 µM worked out at 92.1%. In experiment [2] (Well no.=4502), the remaining activity at 3.75 µM was 94.2%.
Consider `CN(C)[C@@H]1C(O)=C(C(N)=O)C(=O)[C@@]2(O)C(O)=C3C(=O)c4c(O)cccc4[C@@](C)(O)[C@H]3C[C@@H]12` [Tetracycline], for which the remaining activity at 1.25 µM in experiment [1] (Well no.=1948) was 95.4%. Also, the remaining activity at 3.75 µM in experiment [2] (Well no.=1948) came out at 93.7%.
With `CCCCCCCCCCCCCC(=O)O` [Tetradecanoic acid], the remaining activity at 1.25 µM in experiment [1] (Well no.=4266) was determined as 102%. Moreover, the remaining activity at 3.75 µM in experiment [2] (Well no.=4266) came to 95.8%.
On to `CC[N+](CC)(CC)CC` [Tetraethylammonium chloride], for which the remaining activity at 1.25 µM in experiment [1] (Well no.=1475) was 93.2%. Besides, the remaining activity at 3.75 µM in experiment [2] (Well no.=1475) was determined as 89%.
Consider `COc1ccc2c(c1OC)CN1CCc3cc4c(cc3C1C2)OCO4` (stereo not shown) [Tetrahydroberberine], for which, in experiment [1] (Well no.=6656), the remaining activity at 1.25 µM stood at 97.9%. The remaining activity at 3.75 µM in experiment [2] (Well no.=6656) amounted to 99.7%.
`C[C@H](O)[C@H](O)[C@H]1CNc2nc(N)[nH]c(=O)c2N1` [Tetrahydrobiopterin]: the remaining activity at 1.25 µM in experiment [1] (Well no.=6159) is 108%. In addition, the remaining activity at 3.75 µM in experiment [2] (Well no.=6159) was 109%.
Regarding `COc1cc(CCC(=O)CC(=O)CCc2ccc(O)c(OC)c2)ccc1O` [Tetrahydrocurcumin], in experiment [1] (Well no.=6199), the remaining activity at 1.25 µM turned out to be 104%. The remaining activity at 3.75 µM in experiment [2] (Well no.=6199) was 107%.
As for `COc1ccc(CC2NCCc3cc(OC)c(OC)cc32)cc1OC` (stereo not shown) [Tetrahydropapaverine HCl], the remaining activity at 1.25 µM in experiment [1] (Well no.=8290) is 99.5%. Also, in experiment [2] (Well no.=8290), the remaining activity at 3.75 µM worked out at 98%.
Turning to `c1ccc2c(c1)CCCC2C1=NCCN1` (stereo not shown) [Tetrahydrozoline (hydrochloride)], the remaining activity at 1.25 µM in experiment [1] (Well no.=8099) came out at 96.6%. The remaining activity at 3.75 µM in experiment [2] (Well no.=8099) stood at 91.5%.
Consider `c1ccc2c(c1)CCCC2C1=NCCN1` (stereo not shown) [Tetrahydrozoline hydrochloride], for which the remaining activity at 1.25 µM in experiment [1] (Well no.=1239) amounted to 103%. For the same molecule, in experiment [2] (Well no.=1239), the remaining activity at 3.75 µM came to 103%.
With `CC(C)NP(=O)(NC(C)C)OP(=O)(NC(C)C)NC(C)C` [Tetraisopropyl pyrophosphoramide], the remaining activity at 1.25 µM in experiment [1] (Well no.=1473) was found to be 103%. In experiment [2] (Well no.=1473), the remaining activity at 3.75 µM amounted to 100%.
Take `Cc1nc(C)c(C)nc1C` [Tetramethylpyrazine]: the remaining activity at 1.25 µM in experiment [1] (Well no.=4143) came out at 98.6%. Further, the remaining activity at 3.75 µM in experiment [2] (Well no.=4143) is 97.4%.
Regarding `c1ccc(C2CN3CCSC3=N2)cc1` (stereo not shown) [Tetramisole hydrochloride], the remaining activity at 1.25 µM in experiment [1] (Well no.=1521) worked out at 99.3%. Further, the remaining activity at 3.75 µM in experiment [2] (Well no.=1521) is 100%.
